Entries after “also recorded” stand apart in the source; their conditions may differ.
Columns and labels:
[1] = test system: MCF-7 (human mammary adenocarcinoma) cell line; assay: sulforhodamine B (SRB) cytotoxicity assay on MCF-7; format: cell-based; conditions: mean ± SE of three or four assays, incubation 72 h, 48 h exposure
Procedure: (§1) The compounds were screened in vitro against two cancer cell lines, MCF-7 and MDA-MB-231 (human mammary adenocarcinoma), and the normal cell line Cos-7 (African green monkey kidney fibroblast). The MCF-7 and MDA-MB231 cell lines were cultured in RPMI-1640 medium, and Cos-7 was cultured in DMEM (Dulbecco's Modified Eagle's Medium) and supplemented with 10% of fetal bovine serum, 2 mM L-glutamine, 10000 units/ml penicillin G sodium, 10000 μg/ml streptomycin sulfate, 25 μg amphotericin B (Gibco), and 1% of nonessential amino acids (Gibco). The cell lines were maintained at 37°C in a humidified atmosphere with 5% CO2. The viability of the cells used in the experiments exceeded 95%, as determined with trypan blue.
(§2) The human tumor cytotoxicity was assessed using the protein-binding dye sulforhodamine B (SRB) in a microculture assay to measure the cell growth as described by. The human tumors and normal cells were treated with the complexes. The cells were removed from the tissue culture flask by treatment with trypsin and diluted with fresh media from the cell suspension to 100 μl containing 5000–10000 cells per well. The cells were then pipetted into 96 microliter plates (Costar) and incubated at 37°C for 24 h in a 5% CO2 atmosphere. Subsequently, 100 μl of a solution of the corresponding organotin complex at different concentrations was added to each well. […] After the incubation period, the cells were fixed to the plastic substratum by the addition of 50 μl of cold trichloroacetic acid (50% aqueous).
(§3) The plates were incubated at 4°C for one hour, washed with tap water, and air-dried. The addition of […] stained trichloroacetic acid-fixed cells. The free SRB was removed by washing with 1% aqueous acetic acid, the plates were air-dried, and the dyed was solubilized by adding ten mM unbuffered Tris base (100 μl). The plates were placed on a shaker for 10 min, and the absorption was measured at 515 nm using an ELISA plate reader (Bio-Tex Instruments).

[2] = test system: MDA-MB-231 (human mammary adenocarcinoma) cell line; assay: sulforhodamine B (SRB) cytotoxicity assay on MDA-MB-231; format: cell-based; conditions: mean ± SE of three or four assays, incubation 72 h, 48 h exposure
Procedure: as §1, §2, §3

[3] = test system: COS-7 (African green monkey kidney fibroblast) normal cell line; assay: sulforhodamine B (SRB) cytotoxicity assay on normal cell line COS-7; format: cell-based; conditions: for Non-Cytotoxic concentration on normal cell line COS-7: nondetectable effect on cell proliferation; for IC50: normal cell line, SRB assay, mean ± SE of three or four assays
Procedure: as §1
The human tumor cytotoxicity was assessed using the protein-binding dye sulforhodamine B (SRB) in a microculture assay to measure the cell growth as described by. The human tumors and normal cells were treated with the complexes. The cells were removed from the tissue culture flask by treatment with trypsin and diluted with fresh media from the cell suspension to 100 μl containing 5000–10000 cells per well. The cells were then pipetted into 96 microliter plates (Costar) and incubated at 37°C for 24 h in a 5% CO2 atmosphere. Subsequently, 100 μl of a solution of the corresponding organotin complex at different concentrations was added to each well. The cultures were exposed to the compounds for 48 h. After the incubation period, the cells were fixed to the plastic substratum by the addition of 50 μl of cold trichloroacetic acid (50% aqueous).
as §3

[4] = stability in DMSO-d6 by 1H NMR; format: physicochemical; conditions: DMSO-d6 solution, up to 72 h
Procedure: The stability of the complexes in biological media was tested to evaluate their cytotoxicity. The compounds were dissolved in a DMSO-Tris-HCl buffer (3 : 7 v/v) over a 72 h period, and the UV-Vis spectra were recorded at 0 and 72 h. ^1H NMR spectra in DMSO-d6 of complexes 1a, 1d, 2a, 2d, 3a, and 3d were also acquired at 0, 24, 56, and 72 h.

[5] = test system: MCF-7 cell line; assay: morphological changes, Giemsa stain light microscopy, MCF-7; format: cell-based, human; conditions: 48 h treatment
Procedure: (§4) To evaluate the morphological alterations induced by organotin(IV) complexes, MCF-7 and MDA-MB231 cell lines were cultured on a tissue culture flask with or without different treatments for 48 h. After incubation, cells were washed two times with PBS, fixed with methanol 100%, and stained with Wright-Giemsa (Sigma-Aldrich, WG32-1L). The culture flasks were examined under an Olympus IX71 Inverted Fluorescence Phase Contrast Microscope. The images were recorded with a Nikon Coolpix 4300 digital camera using the 20x objectives and analyzed by ImageJ software.

[6] = test system: MDA-MB-231 cell line; assay: morphological changes, Giemsa stain light microscopy, MDA-MB-231; format: cell-based, human; conditions: 48 h treatment
Procedure: as §4

SMILES	IC50 [1] [nM]	IC50 [2] [nM]	Non-Cytotoxic concentration on normal cell line COS-7 [3] [µM]	IC50 [3] [nM]	stability by 1H NMR [4]	morphological alterations MCF-7 [5]	morphological alterations MDA-MB-231 [6]
CCC[CH2][Sn]1([CH2]CCC)[O]c2cc(C)oc(=O)c2C(C)=NN=C(Nc2ccccc2)[S]1 [Compound 3a, 2,2-Dibutyl-7,10-dimethyl-4-(aminophenyl) Pyrane[3,4-h]-1,3,5,6,2-oxathiadiazastannonin-8-one]	210 ± 9	100 ± 10	0.02	340 ± 10	good stability	–	–
CC1=NN=C(CN)[S][Sn]([CH2][Si](C)(C)C)([CH2][Si](C)(C)C)[O]c2cc(C)oc(=O)c21 [Compound 2e, 2,2-Bis(trimethylsilyl)methyl-7,10-dimethyl-4-(aminomethyl) Pyrane[3,4-h]-1,3,5,6,2-oxathiadiazastannonin-8-one]	150 ± 20	120 ± 8	0.01	290 ± 30	–	cytoplasm vacuolization	–
N.N.[Cl][Pt][Cl] [Cisplatin, reference compound]	5300 ± 500	27700	–	7170 ± 600	–	–	–
CC1=NN=C(Nc2ccccc2)[S][Sn]([c]2ccccc2)([c]2ccccc2)[O]c2cc(C)oc(=O)c21 [Compound 3c, 2,2-Diphenyl-7,10-dimethyl-4-(aminophenyl) Pyrane[3,4-h]-1,3,5,6,2-oxathiadiazastannonin-8-one]	160 ± 10	490 ± 2	0.01	250 ± 6	–	–	–
CC1=NN=C(N)[S][Sn]([CH2][Si](C)(C)C)([CH2][Si](C)(C)C)[O]c2cc(C)oc(=O)c21 [Compound 1e, 4-Amino-2,2-bis(trimethylsilyl)methyl-7,10-dimethylpyrane[3,4-h]-1,3,5,6,2-oxathiadiazastannonin-8-one]	180 ± 5	42 ± 8	0.01	140 ± 10	–	–	–
CCCCCCC[CH2][Sn]1([CH2]CCCCCCC)[O]c2cc(C)oc(=O)c2C(C)=NN=C(N)[S]1 [Compound 1b, 4-Amino-2,2-dioctyl-7,10-dimethylpyrane-[3,4-h]-1,3,5,6,2-oxathiadiazastannonin-8-one]	8650 ± 700	11000 ± 1500	0.2	12200 ± 300	–	–	–
CCC[CH2][Sn]1([CH2]CCC)[O]c2cc(C)oc(=O)c2C(C)=NN=C(CN)[S]1 [Compound 2a, 2,2-Dibutyl-7,10-dimethyl-4-(aminomethyl) Pyrane[3,4-h]-1,3,5,6,2-oxathiadiazastannonin-8-one]	210 ± 40	310 ± 20	0.01	620 ± 60	good stability	–	–
CC1=NN=C(N)[S][Sn]([c]2ccccc2)([c]2ccccc2)[O]c2cc(C)oc(=O)c21 [Compound 1c, 4-Amino-2,2-diphenyl-7,10-dimethylpyrane[3,4-h]-1,3,5,6,2-oxathiadiazastannonin-8-one]	611 ± 20	170 ± 10	0.02	680 ± 50	–	–	Cell density decreased
CCCCCCC[CH2][Sn]1([CH2]CCCCCCC)[O]c2cc(C)oc(=O)c2C(C)=NN=C(Nc2ccccc2)[S]1 [Compound 3b, 2,2-Dioctyl-7,10-dimethyl-4-(aminophenyl) Pyrane[3,4-h]-1,3,5,6,2-oxathiadiazastannonin-8-one]	730 ± 100	540 ± 80	0.01	1600 ± 200	–	–	–
CC1=NN=C(CN)[S][Sn]([CH]2CCCCC2)([CH]2CCCCC2)[O]c2cc(C)oc(=O)c21 [Compound 2d, 2,2-Dicyclohexyl-7,10-dimethyl-4-(aminomethyl) Pyrane[3,4-h]-1,3,5,6,2-oxathiadiazastannonin-8-one]	200 ± 2	87 ± 200	0.01	280 ± 10	good stability	–	–
CC1=NN=C(Nc2ccccc2)[S][Sn]([CH2][Si](C)(C)C)([CH2][Si](C)(C)C)[O]c2cc(C)oc(=O)c21 [Compound 3e, 2,2-Bis(trimethylsilyl)methyl-7,10-dimethyl-4-(aminophenyl) Pyrane[3,4-h]-1,3,5,6,2-oxathiadiazastannonin-8-one]	40 ± 2	140 ± 3	0.01	250 ± 10	–	Cell density decreased; also recorded: presence of nonadherent cells; also recorded: chromatin condensation and pyknotic nuclei	cytoplasm vacuolization
CC1=NN=C(N)[S][Sn]([CH]2CCCCC2)([CH]2CCCCC2)[O]c2cc(C)oc(=O)c21 [Compound 1d, 4-Amino-2,2-dicyclohexyl-7,10-dimethylpyrane[3,4-h]-1,3,5,6,2-oxathiadiazastannonin-8-one]	203 ± 8	119 ± 3	0.01	180 ± 6	good stability	–	–
CC1=NN=C(CN)[S][Sn]([c]2ccccc2)([c]2ccccc2)[O]c2cc(C)oc(=O)c21 [Compound 2c, 2,2-Diphenyl-7,10-dimethyl-4-(aminomethyl) Pyrane[3,4-h]-1,3,5,6,2-oxathiadiazastannonin-8-one]	1080 ± 10	1020 ± 30	0.02	1150 ± 100	–	–	–
CCCCCCC[CH2][Sn]1([CH2]CCCCCCC)[O]c2cc(C)oc(=O)c2C(C)=NN=C(NC)[S]1 [Compound 2b, 2,2-Dioctyl-7,10-dimethyl-4-(aminomethyl) Pyrane[3,4-h]-1,3,5,6,2-oxathiadiazastannonin-8-one]	1390 ± 30	3280 ± 80	0.2	11600 ± 800	–	Cell density decreased	–
CCC[CH2][Sn]1([CH2]CCC)[O]c2cc(C)oc(=O)c2C(C)=NN=C(N)[S]1 [Compound 1a, 4-Amino-2,2-dibutyl-7,10-dimethylpyrane[3,4-h]-1,3,5,6,2-oxathiadiazastannonin-8-one]	380 ± 30	120 ± 10	0.02	490 ± 30	good stability	–	Cell density decreased
CC1=NN=C(Nc2ccccc2)[S][Sn]([CH]2CCCCC2)([CH]2CCCCC2)[O]c2cc(C)oc(=O)c21 [Compound 3d, 2,2-Dicyclohexyl-7,10-dimethyl-4-(aminophenyl) Pyrane[3,4-h]-1,3,5,6,2-oxathiadiazastannonin-8-one]	160 ± 6	70 ± 5	0.01	160 ± 20	–	–	chromatin condensation
